Results published in PMC5691136, “The role of CXCR3/LRP1 cross-talk in the invasion of primary brain tumors” (Nature Communications, 2017).

Molecular target: T1, CXCR3-A (Homo sapiens, UniProt P49682)
T1 construct: full-length human CXCR3-A (isoform A) in membrane fragments of transfected U87 and HEK-293 cells
T1 sequence (P49682 1-368): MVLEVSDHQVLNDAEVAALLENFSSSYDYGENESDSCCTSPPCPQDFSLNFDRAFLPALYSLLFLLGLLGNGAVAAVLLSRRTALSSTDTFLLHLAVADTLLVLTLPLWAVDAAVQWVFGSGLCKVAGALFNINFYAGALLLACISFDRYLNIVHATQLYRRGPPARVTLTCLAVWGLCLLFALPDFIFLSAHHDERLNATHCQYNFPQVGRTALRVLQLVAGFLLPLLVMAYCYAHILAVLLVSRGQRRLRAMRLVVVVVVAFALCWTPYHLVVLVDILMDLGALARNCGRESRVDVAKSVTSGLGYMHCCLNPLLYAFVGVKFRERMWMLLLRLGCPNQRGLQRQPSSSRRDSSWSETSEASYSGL
Assay: plasmon waveguide resonance on captured cell membrane fragments; no spectral change with U87-CTRL fragments
Format: binding

Kd: 36 ± 9 nM
SMILES: NC(N)=NCCC[C@H](NC(=O)[C@@H]1Cc2ccccc2CN1C(=O)CCC(=O)c1ccccc1)C(=O)NCC1CCCCC1 [PS372424]
